Results reported in patent EP2529738A1, “Substituted terpyridines” (Max-Delbrück-Centrum für Molekulare Medizin, priority 2011, dated 2012).
Entries after “also recorded” stand apart in the source; their conditions may differ.

What was measured:
D/D domain of RIIα = target: T1, D/D domain of RIIα (Homo sapiens, UniProt P13861); assay: 1H,15N-HSQC NMR binding experiment with 15N-labeled D/D domain; conditions: result in words; 100 µM 15N-labeled D/D domain, 300 µM compound
T1 construct: ^15N-isotopically enriched RIIα(1-44)
Description: For an estimate of binding specificity, the compounds were tested in a second NMR assay for binding to the D/D domain of RIIα. The D/D domain contains the AKAP binding site of RIIα. Therefore, suitable small molecule mimetics of the RIIBD of AKAP18 must bind to this domain of the full length protein. In other words, binding to the D/D domain is a good initial test for an AKAP-like, specific interaction of the compounds with RIIα.
For this purpose HSQC-experiments with ^15N-labeled D/D domain were employed with the compounds depicted in table 3. The results obtained correspond to the results from the STD experiments. […] In Fig. 5, HSQC-spectra of the D/D domain in presence and absence of 25b are depicted.
^1H,^15N-Heteronuclear Single Quantum Coherence (HSQC)-NMR)
^1H,^15N-HSQC-NMR experiments were carried on a 600 MHz spectrometer at 300 K.
^1H,^15N-correlation experiments using with ^15N-isotopically enriched RIIα(1-44) were recorded using a standard HSQC pulse program or an HMQC-SOFAST pulse program, both employing WATERGATE for solvent suppression.
The protein concentration employed for binding studies was in the order of 0.1 mM. The concentration of compounds was 0.3 mM for compounds and 0.8 mM for peptides, respectively. Experiments were performed in NMR buffer containing 5% d6-DMSO. Each step was followed by recording of a new spectrum. The acquisition time in the direct dimension was restricted to 150 ms. A total of 256 increments was recorded in the indirect dimension. [formula]

full length RIIα-His = target: T2, full length RIIα-His (Homo sapiens, UniProt P13861); assay: saturation transfer difference (STD) NMR binding experiment; conditions: result in words; reduction in ligand peak intensity indicates binding
T2 construct: 20 µM unlabelled PKA-RIIα FL(1-404)-His; His (C)
Description: (§1) The compounds were tested first in a saturation transfer difference (STD) NMR experiment. For the STD experiments with the compounds depicted in table 1 full length RIIα-His was used as the target protein. Prior to measurements of STD spectra in the presence of the target protein, the same set of experiments was performed in the absence of protein in order to confirm that no saturation of the compound signals takes place when irradiating the sample at the frequency chosen for protein irradiation. […] Table 2: Qualitative results from STD and HSQC experiments with the indicated compounds.
Saturation transfer difference nuclear magnetic resonance (STD-NMR)
(§2) NMR samples for STD-NMR contained 0.1 mM of the indicated compound in NMR buffer, with a final concentration of d6-DMSO of 2%. Samples were measured in presence or absence of 20 µM unlabelled PKA-RIIα FL(1-404)-His.
STD-NMR experiments were recorded with the carrier frequency set to -1000 (around -1 ppm) for on-resonance irradiation and about 330 ppm for off-resonance irradiation. A train of 50 Gaussian-shaped pulses at 40 ms was applied, each separated by a 1-ms delay, for a total duration of 2.05 s, to achieve selective protein saturation. Spectra acquisition was done with 32 scans in absence of protein and 256 scans in presence of protein and a relaxation delay of 1.3 s. A T1ρ spin lock pulse of 40 ms was used to suppress the background protein signals. The STD spectrum was obtained from the internal subtraction of the on-resonance from the off-resonance data by phase cycling.

[1] = behaviour of the compound in the STD-NMR sample solution; type: physicochemical; conditions: 0.1 mM in NMR buffer, 2% d6-DMSO; no ligand peaks measurable by NMR
Description: as §1
In Fig. 4, the STD-spectra of a binding compound (25b) and a non-binding compound (14b) are depicted.
as §2

AKAP18α-PKA interaction = conditions: inhibition of AKAP18α-PKA interaction; cited from earlier work

T1 sequence (P13861 1-44): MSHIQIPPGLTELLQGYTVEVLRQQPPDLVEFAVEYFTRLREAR
T2 sequence (P13861 whole entry): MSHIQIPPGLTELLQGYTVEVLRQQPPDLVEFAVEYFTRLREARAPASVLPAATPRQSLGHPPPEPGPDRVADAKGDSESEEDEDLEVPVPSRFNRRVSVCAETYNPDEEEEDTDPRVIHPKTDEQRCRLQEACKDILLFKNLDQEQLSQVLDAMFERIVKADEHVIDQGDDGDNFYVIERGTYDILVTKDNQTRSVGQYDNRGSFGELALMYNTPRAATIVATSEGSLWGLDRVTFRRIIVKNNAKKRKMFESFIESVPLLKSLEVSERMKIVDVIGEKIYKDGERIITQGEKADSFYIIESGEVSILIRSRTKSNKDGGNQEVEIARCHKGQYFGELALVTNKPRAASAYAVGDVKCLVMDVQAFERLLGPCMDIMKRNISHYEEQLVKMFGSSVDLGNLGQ

Row | Compound | change in chemical shift of D/D domain signals upon addition of compound (D/D domain of RIIα) | binding of the compounds to RIIα in STD experiments (full length RIIα-His) | solubility in the STD-NMR sample [1] | IC50 (AKAP18α-PKA interaction)
1 | CCOC(=O)CCc1cnc(C#N)c(-c2ncc(-c3nc(CCCN(Cc4ccccc4)Cc4ccccc4)cc4c3CCC4)c(C)c2C)c1 [22a, Ethyl 3-(6-cyano-5-(5-(3-(3-(dibenzylamino)propyl)-6,7-dihydro-5H-cyclopenta[c]pyridin-1-yl)-3,4-dimethylpyridin-2-yl)pyridine-3-yl)propanoate] |  |  | precipitated from solution; also recorded: crystallized from the solution | 
2 | Cc1cc(-c2nc(CCCN(Cc3ccccc3)Cc3ccccc3)cc3c2CCC3)cnc1-c1cc(CCC(=O)O)cnc1C(N)=O [25b, 3-[6-carbamoyl-5-[5-[3-[3-(dibenzylamino)propyl]-6,7-dihydro-5H-cyclopenta[c]pyridin-1-yl]-3-methyl-2-pyridyl]-3-pyridyl]propanoic acid] | change in chemical shift of D/D domain signals was observed | reduction in ligand peak intensity |  | 
3 | CCOC(=O)CCc1cnc(C#N)c(-c2ncccc2C)c1 [compound 27] | no perturbation of chemical shifts | No binding was detected |  | 
4 | PEDAELVRLSKRLVENAVEKAVQQY (SEQ ID 01) [AKAP18δ-L314E] |  |  |  | low nanomolar range

Further lines, with some results ahead:

Row | change in chemical shift of D/D domain signals upon addition of compound (D/D domain of RIIα) | binding of the compounds to RIIα in STD experiments (full length RIIα-His) | Compound | solubility in the STD-NMR sample [1] | IC50 (AKAP18α-PKA interaction)
5 | no perturbation of chemical shifts | No binding was detected | Cc1cc(-c2nc(CCCN)cc3c2CCC3)cnc1-c1cc(CCC(=O)O)cnc1C(N)=O [14b] |  | 
6 | no perturbation of chemical shifts | No binding was detected | Cc1cc(-c2nc(CCCNCc3ccccc3)cc3c2CCC3)cnc1-c1cc(CCC(=O)O)cnc1C(N)=O [14c] |  | 
7 |  | reduction in ligand peak intensity | Cc1c(-c2nc(CCCN(Cc3ccccc3)Cc3ccccc3)cc3c2CCC3)cnc(-c2cc(CCC(=O)O)cnc2C(N)=O)c1C [25a, 3-[6-carbamoyl-5-[5-[3-[3-(dibenzylamino)propyl]-6,7-dihydro-5H-cyclopenta[c]pyridin-1-yl]-3,4-dimethyl-2-pyridyl]-3-pyridyl]propanoic acid] |  | 
